Measured values from ChEMBL document CHEMBL3351988, “Synthesis and biological evaluation of novel 6-chloro-quinazolin derivatives as potential antitumor agents” (Eur J Med Chem, 2014).
Counter-ions that a name gives are not always drawn. The source made the active and inactive calls. The rule behind the calls is not given here.

Legend:
MGC-803 [1] = test: Induction of apoptosis in human MGC803 cells assessed as late apoptotic cell level at 10 uM after 12 hrs by AO/EB staining based fluorescence microscopy; assay type: functional
MGC-803 [2] = test: Induction of apoptosis in human MGC803 cells at 1 uM after 6 hrs by Annexin V-FITC staining based flow cytometry; assay type: functional
MGC-803 [3] = test: Induction of apoptosis in human MGC803 cells at 1 uM after 24 hrs by Annexin V-FITC staining based flow cytometry; assay type: functional
MGC-803 [4] = test: Induction of apoptosis in human MGC803 cells at 1 uM after 12 hrs by Annexin V-FITC staining based flow cytometry; assay type: functional
Bcap37 [5] = test: Induction of apoptosis in human Bcap37 cells assessed as early apoptotic cell level at 10 uM after 12 hrs by AO/EB staining based fluorescence microscopy; assay type: functional
MGC-803 [6] = test: Induction of apoptosis in human MGC803 cells assessed as DNA fragmentation at 10 uM after 12 hrs by TUNEL assay; assay type: functional, cell-based
Bcap37 [7] = test: Induction of apoptosis in human Bcap37 cells assessed as condensed chromatin at 10 uM after 12 hrs by Hoechst 33258 staining based fluorescence microscopy; assay type: functional, cell-based
MGC-803 [8] = test: Induction of apoptosis in human MGC803 cells at 10 uM after 12 hrs by Annexin V-FITC staining based flow cytometry; assay type: functional
Bcap37 [9] = test: Induction of apoptosis in human Bcap37 cells assessed as late apoptotic cell level at 10 uM after 12 hrs by AO/EB staining based fluorescence microscopy; assay type: functional
MGC-803 [10] = test: Induction of apoptosis in human MGC803 cells at 5 uM after 12 hrs by Annexin V-FITC staining based flow cytometry; assay type: functional
MGC-803 [11] = test: Induction of apoptosis in human MGC803 cells assessed as condensed chromatin at 10 uM after 12 hrs by Hoechst 33258 staining based fluorescence microscopy; assay type: functional, cell-based
MGC-803 [12] = test: Induction of apoptosis in human MGC803 cells at 10 uM after 6 hrs by Annexin V-FITC staining based flow cytometry; assay type: functional
MGC-803 [13] = test: Induction of apoptosis in human MGC803 cells at 5 uM after 6 hrs by Annexin V-FITC staining based flow cytometry; assay type: functional
MGC-803 [14] = test: Induction of apoptosis in human MGC803 cells at 5 uM after 24 hrs by Annexin V-FITC staining based flow cytometry; assay type: functional
MGC-803 [15] = test: Induction of apoptosis in human MGC803 cells assessed as early apoptotic cell level at 10 uM after 12 hrs by AO/EB staining based fluorescence microscopy; assay type: functional
Bcap37 [16] = test: Induction of apoptosis in human Bcap37 cells assessed as DNA fragmentation at 10 uM after 12 hrs by TUNEL assay; assay type: functional, cell-based
MGC-803 [17] = test: Induction of apoptosis in human MGC803 cells at 10 uM after 24 hrs by Annexin V-FITC staining based flow cytometry; assay type: functional
MGC-803 [18] = test: Growth inhibition of human MGC803 cells after 72 hrs by MTT assay; assay type: functional, cell-based; conditions: MGC-803, 72 h
[19] = Growth inhibition of human PC3 cells at 10 uM after 72 hrs by MTT assay; assay type: functional; conditions: PC-3, 72 h, read-out: GI
Bcap37 [20] = test: Induction of apoptosis in human Bcap37 cells assessed as condensed chromatin at 1 to 10 uM after 12 hrs by Hoechst 33258 staining based fluorescence microscopy; assay type: functional, cell-based
MGC-803 [21] = test: Growth inhibition of human MGC803 cells at 10 uM after 72 hrs by MTT assay; assay type: functional; conditions: MGC-803, 72 h, read-out: GI
[22] = Growth inhibition of human PC3 cells after 72 hrs by MTT assay; assay type: functional, cell-based; conditions: PC-3, 72 h
Bcap37 [23] = test: Induction of apoptosis in human Bcap37 cells assessed as cell volume reduction at 1 to 10 uM after 12 hrs by AO/EB staining based fluorescence microscopy; assay type: functional
MGC-803 [24] = test: Induction of apoptosis in human MGC803 cells assessed as condensed chromatin at 1 to 10 uM after 12 hrs by Hoechst 33258 staining based fluorescence microscopy; assay type: functional, cell-based
Bcap37 [25] = test: Induction of apoptosis in human Bcap37 cells assessed as nuclear fragmentation at 1 to 10 uM after 12 hrs by AO/EB staining based fluorescence microscopy; assay type: functional, cell-based
Bcap37 [26] = test: Induction of apoptosis in human Bcap37 cells assessed as chromatin condensation at 1 to 10 uM after 12 hrs by AO/EB staining based fluorescence microscopy; assay type: functional, cell-based
MGC-803 [27] = test: Induction of apoptosis in human MGC803 cells assessed as chromatin condensation at 1 to 10 uM after 12 hrs by AO/EB staining based fluorescence microscopy; assay type: functional, cell-based
Bcap37 [28] = test: Growth inhibition of human Bcap37 cells at 10 uM after 72 hrs by MTT assay; assay type: functional; conditions: Bcap37, 72 h, read-out: GI
MGC-803 [29] = test: Induction of apoptosis in human MGC803 cells assessed as cell volume reduction at 1 to 10 uM after 12 hrs by AO/EB staining based fluorescence microscopy; assay type: functional
Bcap37 [30] = test: Growth inhibition of human Bcap37 cells after 72 hrs by MTT assay; assay type: functional, cell-based; conditions: Bcap37, 72 h
MGC-803 [31] = test: Induction of apoptosis in human MGC803 cells assessed as nuclear fragmentation at 1 to 10 uM after 12 hrs by AO/EB staining based fluorescence microscopy; assay type: functional, cell-based

SMILES | IC50 (MGC-803 [18]) | inhibition of growth at 10 µM [19] | inhibition of growth at 10 µM (MGC-803 [21]) | IC50 [22] | inhibition of growth at 10 µM (Bcap37 [28]) | IC50 (Bcap37 [30]) | further results
CC[C@@]1(O)C(=O)OCc2c1cc1n(c2=O)Cc2cc3cc(O)ccc3nc2-1 [HYDROXYCAMPTOTHECIN] | – | – | – | – | – | – | Activity (MGC-803 [1]): Active; Activity (MGC-803 [2]): 1.3%; Activity (MGC-803 [3]): 3.8%; Activity (MGC-803 [4]): 2.1%; Activity (Bcap37 [5]): Active; Activity (MGC-803 [6]): Active; Activity (Bcap37 [7]): Active; Activity (MGC-803 [8]): 9.1%; Activity (Bcap37 [9]): Active; Activity (MGC-803 [10]): 6%; Activity (MGC-803 [11]): Active; Activity (MGC-803 [12]): 3.5%; Activity (MGC-803 [13]): 1.8%; Activity (MGC-803 [14]): 7.3%; Activity (MGC-803 [15]): Active; Activity (Bcap37 [16]): Active; Activity (MGC-803 [17]): 18.6%
O=C(/C=C/c1ccc(Oc2ncnc3ccc(Cl)cc23)cc1)/C=C/c1cc([N+](=O)[O-])ccc1Cl | 2.15 µM | 76.8% | 86.7% | 3.15 µM | 72.5% | 9.84 µM | Activity (MGC-803 [2]): 1.2%; Activity (MGC-803 [3]): 4.3%; Activity (MGC-803 [4]): 1.8%; Activity (Bcap37 [20]): Active; Activity (MGC-803 [6]): Active; Activity (MGC-803 [8]): 8.9%; Activity (Bcap37 [23]): Active; Activity (MGC-803 [24]): Active; Activity (MGC-803 [10]): 5.6%; Activity (Bcap37 [25]): Active; Activity (Bcap37 [26]): Active; Activity (MGC-803 [12]): 4.2%; Activity (MGC-803 [13]): 1.7%; Activity (MGC-803 [27]): Active; Activity (MGC-803 [14]): 9.8%; Activity (Bcap37 [16]): Active; Activity (MGC-803 [29]): Active; Activity (MGC-803 [17]): 21.9%; Activity (MGC-803 [31]): Active
O=C(/C=C/c1ccc(Cl)c([N+](=O)[O-])c1)/C=C/c1ccccc1Oc1ncnc2ccc(Cl)cc12 | 5.32 µM | 62.5% | 70.2% | 9.76 µM | 52.5% | 12.3 µM | –
O=C(/C=C/c1ccc(Oc2ncnc3ccc(Cl)cc23)cc1)/C=C/c1ccc(Cl)c([N+](=O)[O-])c1 | 7.19 µM | 56.3% | 66.2% | 11.8 µM | 56.3% | 16.2 µM | –
O=C(/C=C/c1cc([N+](=O)[O-])ccc1Cl)/C=C/c1ccccc1Oc1ncnc2ccc(Cl)cc12 | 1.96 µM | 86.9% | 91.6% | 2.51 µM | 78.4% | 8.47 µM | Activity (MGC-803 [2]): 2%; Activity (MGC-803 [3]): 5.2%; Activity (MGC-803 [4]): 3.5%; Activity (Bcap37 [20]): Active; Activity (MGC-803 [6]): Active; Activity (MGC-803 [8]): 15.7%; Activity (Bcap37 [23]): Active; Activity (MGC-803 [24]): Active; Activity (MGC-803 [10]): 9.2%; Activity (Bcap37 [25]): Active; Activity (Bcap37 [26]): Active; Activity (MGC-803 [12]): 10.3%; Activity (MGC-803 [13]): 6.7%; Activity (MGC-803 [27]): Active; Activity (MGC-803 [14]): 16.8%; Activity (Bcap37 [16]): Active; Activity (MGC-803 [29]): Active; Activity (MGC-803 [17]): 31.7%; Activity (MGC-803 [31]): Active
O=C(/C=C/c1ccc(Oc2ncnc3ccc(Cl)cc23)cc1)/C=C/c1c(Cl)cccc1Cl | 6.77 µM | 67.5% | 61.7% | 9.3 µM | 62.5% | 13.8 µM | –
O=C(/C=C/c1ccc(Oc2ncnc3ccc(Cl)cc23)cc1)/C=C/c1cccc(Cl)c1Cl | 7.3 µM | 67.4% | 68.5% | 10.2 µM | 61.7% | 14.3 µM | –
O=C(/C=C/c1ccccc1Oc1ncnc2ccc(Cl)cc12)/C=C/c1c(Cl)cccc1Cl | 5.17 µM | 70.1% | 69.3% | 7.98 µM | 67.1% | 11.3 µM | –
COc1cccc2c1C(=O)c1c(O)c3c(c(O)c1C2=O)C[C@@](O)(C(=O)CO)C[C@@H]3O[C@H]1C[C@H](N)[C@H](O)[C@H](C)O1 [DOXORUBICIN HYDROCHLORIDE] | 0.71 µM | 93.5% | 95.8% | 0.8 µM | 96.2% | 0.94 µM | –
O=C(/C=C/c1ccc(Cl)c(Cl)c1)/C=C/c1ccccc1Oc1ncnc2ccc(Cl)cc12 | 16.1 µM | 42.2% | 56.7% | 18.3 µM | 38.2% | 21.2 µM | –
O=C(/C=C/c1ccccc1Oc1ncnc2ccc(Cl)cc12)/C=C/c1cccc(Cl)c1Cl | 5.21 µM | 73.8% | 76.5% | 8.35 µM | 70.2% | 11.5 µM | –
O=C(/C=C/c1ccc(Oc2ncnc3ccc(Cl)cc23)cc1)/C=C/c1ccc(Cl)c(Cl)c1 | 16.9 µM | 33.5% | 50.5% | 18.8 µM | 34.5% | 27.9 µM | –
